Twelve compounds from US10111854B2, “Synthesis and use of amine-containing flavonoids as potent anti-leishmanial agents” (The Hong Kong Polytechnic University, priority 2014, dated 2018) can be followed below.

Some results are limits rather than exact numbers.

One may read the IC50 as the midpoint of a concentration-inhibition curve.

Data set [1] has as its system L. donovani HU3 amastigotes. Briefly: Anti-amastigote activity in infected PEM, L. donovani HU3. Format: cell-based. The settings on record: Leishmania donovani, 72 h; infected PEM, 3 days, Giemsa; SSG-sensitive. The procedure:
(§1) Mouse peritoneal elicited macrophages (PEM) were obtained as previously described (2). A round cover slip (12 mm in diameter) was placed into each well of 24-well culture plate. Mouse PEM were resuspended in supplemented DMEM media containing 10% heat inactivated FBS (v/v), 100 U/mL penicillin and 100 μg/mL streptomycin and seeded into each well at a cell density of 1×10^5 cells per 500 μL. Macrophages were allowed to attach overnight. Non-adherent cells were removed by gentle washing with un-supplemented DMEM media twice. Adherent macrophages were infected with late-log promastigotes at a parasite-to-macrophage ratio of 20:1 overnight at 37° C. with 5% CO2. Non-internalized promastigotes were removed by washing twice with un-supplemented DMEM media. Infected macrophages were further incubated in 500 μL of supplemented DMEM media in the presence or absence of FM for 72 hours at 37° C. After incubation, cover slips were stained with Giemsa and the percentage of macrophages infected and number of amastigotes per 100 macrophages was enumerated.
(§2) PEM cells were infected with late-log promastigotes (L. amazonensis LV78, L. braziliensis UA847, L. donovani HU3, L. donovani 39) for 24 hr at 37° C. Infected macrophages were then treated with various antileishmanials and incubated for 3 days at 37° C. After 3 days, the cover slips were stained with Giemsa. The number of amastigotes per 100 macrophages were determined and used to calculate IC50 values.

For data set [2], the system named is L. amazonensis LV78 amastigotes. In words: Anti-amastigote activity in infected PEM, L. amazonensis LV78. Format: cell-based. To be noted: for IC50: Leishmania amazonensis, 72 h, infected PEM, 3 days, Giemsa; for Selective index (a)/(b): IC50 RAW264.7 over IC50 L. amazonensis LV78 amastigotes. The method, then:
as §1, §2

Data set [3] concerns L. donovani HU3 promastigotes. Briefly: Anti-promastigote activity (MTS assay), L. donovani HU3. Format: cell-based. The settings on record: Leishmania donovani, 72 hours. The method, then: (§3) Promastigotes of visceral L. donovani Ld39 and LdHU3, and cutaneous L. amazonensis LV78, L. braziliensis UA847 and L. major FV1 were employed in the study. All strains were cultured in Schneider's Drosophila Medium (Invitrogen), pH 6.9 supplemented with 10% (v/v) heat inactivated fetal bovine serum (Hyclone) with 4 mM glutamine (Sigma) and 25 μg/mL gentamicin solution (Invitrogen) at 27° C. for 4 days. RAW264.7 cells were cultured in supplemented DMEM media with 10% heat inactivated FBS and 100 U/mL penicillin and 100 μg/mL of streptomycin. They were maintained at 37° C. in a humidified atmosphere with 5% CO2. The cells were split constantly after a confluent monolayer has been formed. The cells were harvested by a cell scraper.
(§4) Anti-promastigote activity was determined according to previous procedures (1) by Cell Titer 96® Aqueous Assay (Promega) that employed a tetrazolium compound. Promastigotes were seeded into 96-well flat bottom microtiter plate at 1×10^5 cells per well in a final volume of 100 μL medium and incubated with a series of concentrations of synthetic FM. Parasites were incubated at 27° C. for 72 hours. After 72 hours of incubation, 10 μL of MTS:PMS mixture [MTS:2-(4,5-Dimethylthiazol-2-yl-)-5-[3-(carboxymethoxy)phenyl]-2-(4-sulfophenyl)-2H-tetrazolium); PMS: phenazine methosulfate both purchased from Sigma] was added into each well of microtiter plate. The plate was then incubated at 27° C. for 4 hours for color development. After 4 hours of incubation, the OD values were determined at 490 nm using automatic microtiter plate reader (Bio-Rad).
(§5) IC50 values of known antileishmanials and the amine-containing flavonoid monomers of the present invention to promastigotes (L. amazonensis LV78, L major FV1, L. donovani HU3, L. donovani 39), macrophages (Raw 264.7 and PEM) and mouse fibroblast (L929) were determined. The anti-promastigotes activities and cytotoxicity of the amine-containing flavonoid monomers of the invention are shown in Table 1.
(Tetrazolium assays rely on reduction of a dye to a coloured formazan, in cell work by metabolically active cells.)

Data set [4] can be described thus: Cytotoxicity, L929 fibroblasts. Format: cell-based, mouse. To be noted: mouse. The method, then: as §5
For data set [5], the system named is L. amazonensis and L. donovani HU3 promastigotes and amastigotes. In words: Anti-promastigote and anti-amastigote activity of FM09, FM01 and FM05 derivatives. Type of data set: cell-based, Leishmania. The settings on record: stage and strain not specified; read-out: IC50, anti-promastigote and anti-amastigote activity (Table 3C). The method, then:
Derivatives of FM09, FM01 and FM05 were synthesized and their anti-promastigote and anti-amastigote activity were determined (Table 3C). Many amine-containing flavonoid monomers have IC50 less than 5 μM, including FM09a, FM09b, FM09c, FM09e, FM09h, FM09i, FM09k, FM09l, FM01b and FM05b.

The test system of data set [6] is L. amazonensis LV78 promastigotes. In words: Anti-promastigote activity (MTS assay), L. amazonensis LV78. Type of data set: cell-based. To be noted: Leishmania amazonensis, 72 hours. The procedure:
as §3, §4, §5

In data set [7] the test system is amastigotes (L. amazonensis LV78, L. braziliensis UA847, L. donovani HU3, L. donovani 39). Briefly: Anti-amastigote activity, strain not given. Type of data set: cell-based. To be noted: strain not specified; visceral and cutaneous Leishmania; read-out: IC50 against amastigotes. The procedure: as §1, §2
Data set [8] has as its system promastigotes (L. amazonensis LV78, L major FV1, L. donovani HU3, L. donovani 39). Briefly: Anti-promastigote activity, strain not given. Type of data set: cell-based. The settings on record: Leishmania amazonensis; strain not specified; read-out: IC50 against promastigotes. The procedure: as §4, §5
The nature of data set [9]: Cytotoxicity, peritoneal elicited macrophages (PEM). Format: cell-based, mouse. To be noted: mouse, Cytotoxicity IC50, PEM. The procedure: as §1, §5
Data set [10] deals with L. major FV1 promastigotes. In words: Anti-promastigote activity (MTS assay), L. major FV1. Type of data set: cell-based. To be noted: Leishmania major, 72 hours. The procedure: as §3, §4, §5
Data set [11] relates to L. donovani Ld39 amastigotes (SSG-resistant). In words: Anti-amastigote activity in infected PEM, L. donovani Ld39. Type of data set: cell-based. The settings on record: Leishmania donovani, 72 h; infected PEM, 3 days, Giemsa; SSG-resistant. The procedure: as §1, §2
Data set [12] relates to L. donovani Ld39 promastigotes. Briefly: Anti-promastigote activity (MTS assay), L. donovani Ld39. Type of data set: cell-based. The settings on record: Leishmania donovani, 72 hours. The procedure:
as §3, §4, §5

On to `COc1ccnc(CN2CCN(CCOc3ccc(-c4cc(=O)c5ccccc5o4)cc3)CC2)c1OC` [FM01b, 2-(4-(2-(4-((3,4-dimethoxypyridin-2-yl)methyl)piperazin-1-yl)ethoxy)phenyl)-4H-chromen-4-one], for which the IC50 in [1] is 3.5 ± 1.01 µM; in data set [2] it was 2.42 ± 0.69 µM; in data set [3], 6.15 ± 1.47 µM; in [4], 95.8 ± 4.25 µM; in data set [5], less than 5 µM; in data set [6], 3.99 ± 0.99 µM.
For `CN(CCOc1ccc(-c2cc(=O)c3ccccc3o2)cc1)CCN(C)Cc1ccncc1` [FM02, 2-(4-(2-(methyl(2-(methyl(pyridin-4-ylmethyl)amino)ethyl)amino)ethoxy)phenyl)-4H-chromen-4-one], the IC50 is less than 5 µM in data set [7]; less than 5 µM in data set [8]; greater than 10 µM in data set [1]; 4.7 ± 1 µM in [2]; 1.8 ± 0.3 µM in data set [3]; 22.1 ± 4 µM in data set [4]. Besides, the IC50 in data set [9] was determined as 22 µM; in data set [10], 5.4 ± 1 µM; in data set [6], 4.6 ± 0.6 µM; in data set [11], 9.6 µM; in data set [12], 2.1 ± 0.6 µM.
In the case of `O=c1cc(-c2ccc(OCCOCCNCc3ccccc3)cc2)oc2ccccc12` [FM04, 2-(4-(2-(2-(benzylamino)ethoxy)ethoxy)phenyl)-4H-chromen-4-one], the IC50 is less than 5 µM in [7]; less than 5 µM in data set [8]; greater than 5 µM in data set [1]; 3.7 ± 1.7 µM in data set [2]; 2.4 ± 0.5 µM in data set [3]; greater than 33 µM in data set [4]. Further, the IC50 amounted to 20.3 µM in [9]; 3.8 ± 0.7 µM in data set [10]; 2.8 ± 0.8 µM in data set [6]; 6.8 µM in [11]; 2.6 ± 0.5 µM in data set [12].
With `COc1ccnc(CN(CCOCCOc2ccc(-c3cc(=O)c4ccccc4o3)cc2)Cc2nccc(OC)c2OC)c1OC` [FM09a, 2-(4-(2-(2-(bis((3,4-dimethoxypyridin-2-yl)methyl)amino)ethoxy)ethoxy)phenyl)-4H-chromen-4-one], the IC50 in data set [2] was 0.56 ± 0.21 µM; in [3] it was 0.47 ± 0.07 µM; in [5] it was less than 5 µM; in data set [9], 10.4 ± 0.64 µM; in data set [6], 0.32 ± 0.05 µM.
With `O=c1cc(-c2ccc(OCCOCCN(Cc3cccnc3)Cc3cccnc3)cc2)oc2ccccc12` [FM09b, 2-(4-(2-(2-(bis(pyridin-3-ylmethyl)amino)ethoxy)ethoxy)phenyl)-4H-chromen-4-one], the 50% inhibitory concentration (IC50) in data set [5] was less than 5 µM.
Regarding `O=c1cc(-c2ccc(OCCOCCN(Cc3ncccc3F)Cc3ncccc3F)cc2)oc2ccccc12` [FM09c, 2-(4-(2-(2-(bis((3-fluoropyridin-2-yl)methyl)amino)ethoxy)ethoxy)phenyl)-4H-chromen-4-one], the IC50 in [1] was 3.1 µM; in data set [2], 1.95 ± 0.78 µM; in data set [3], 5.09 ± 1.13 µM; in [5], less than 5 µM; in data set [9] it was 35.4 ± 1.05 µM; in data set [6] it was 3.19 ± 0.66 µM.
Take `Cc1cccc(CN(CCOCCOc2ccc(-c3cc(=O)c4ccccc4o3)cc2)Cc2cccc(C)n2)n1` [FM09e, 2-(4-(2-(2-(bis((6-methylpyridin-2-yl)methyl)amino)ethoxy)ethoxy)phenyl)-4H-chromen-4-one]: the IC50 in data set [1] is 3.5 ± 0.48 µM; in data set [2], 2.4 ± 0.37 µM; in data set [3] it was 4.9 ± 0.78 µM; in data set [4], 18.8 ± 0.95 µM; in [5] it was less than 5 µM; in data set [6], 7.41 ± 1.76 µM.
For `COc1c(C)cnc(CN(CCOCCOc2ccc(-c3cc(=O)c4ccccc4o3)cc2)Cc2ncc(C)c(OC)c2C)c1C` [FM09i, 2-(4-(2-(2-(bis((4-methoxy-3,5-dimethylpyridin-2-yl)methyl)amino)ethoxy)ethoxy)phenyl)-4H-chromen-4-one], the IC50 in [1] was 0.3 ± 0.05 µM; in [2], 0.27 ± 0.02 µM; in data set [3], 0.18 ± 0.07 µM; in data set [4], 2.28 ± 0.83 µM; in data set [5], less than 5 µM; in [9], 4.5 µM. In data set [6], this compound yielded an IC50 of 0.08 ± 0.01 µM.
Regarding `COCCCOc1ccnc(CN(CCOCCOc2ccc(-c3cc(=O)c4ccccc4o3)cc2)Cc2nccc(OCCCOC)c2C)c1C` [FM09k, 2-(4-(2-(2-(bis((4-(3-methoxypropoxy)-3-methylpyridin-2-yl)methyl)amino)ethoxy)ethoxy)phenyl)-4H-chromen-4-one], the IC50 in data set [1] is 0.3 ± 0.04 µM; in [2] it was 0.32 ± 0.02 µM; in data set [3] it was 1.06 ± 0.1 µM; in data set [4], 4.7 ± 0.71 µM; in data set [5], less than 5 µM; in data set [9], 5.3 µM. The compound also had an IC50 in data set [6] of 0.16 ± 0.05 µM.
Turning to `O=C(COc1ccc(-c2cc(=O)c3ccccc3o2)cc1)N1CCCN(Cc2ccncc2)CC1` [FM15, 2-(4-(2-oxo-2-(4-(pyridin-4-ylmethyl)-1,4-diazepan-1-yl)ethoxy)phenyl)-4H-chromen-4-one], the IC50 in data set [7] is less than 5 µM; in data set [8], less than 5 µM; in [1] it was greater than 10 µM; in data set [2], greater than 9 µM; in data set [3], 1.5 ± 0.3 µM; in data set [4], 14.9 ± 2.6 µM. Moreover, the IC50 in data set [10] is 6.4 ± 1.7 µM; in data set [6], 4.8 ± 1.3 µM; in data set [11] it was 3.3 µM; in data set [12], 1.8 ± 0.7 µM.
In the case of `O=c1cc(-c2ccc(OCCC3CCCCN3Cc3ccncc3)cc2)oc2ccccc12` (centres unmarked) [FM17, 2-(4-(2-(1-(pyridin-4-ylmethyl)piperidin-2-yl)ethoxy)phenyl)-4H-chromen-4-one], the IC50 is less than 5 µM in data set [7]; less than 5 µM in data set [8]; greater than 10 µM in [1]; 3.4 ± 0.9 µM in [2]; 0.4 ± 0.1 µM in data set [3]; greater than 100 µM in [4]. Besides, the IC50 was 2.1 ± 0.5 µM in data set [10], 0.9 ± 0.3 µM in data set [6], greater than 10 µM in data set [11] and 1.5 ± 0.5 µM in [12]. Moreover, the “Selective index (a)/(b)” value in data set [2] was greater than 29.4.
Consider `O=c1cc(-c2ccc(OC[C@@H]3CCCN3Cc3ccncc3)cc2)oc2ccccc12` [FM18, (S)-2-(4-((1-(pyridin-4-ylmethyl)pyrrolidin-2-yl)methoxy)phenyl)-4H-chromen-4-one], for which the 50% inhibitory concentration (IC50) in data set [7] is less than 5 µM; in data set [8], less than 5 µM; in [1] it was greater than 9 µM; in [2], 3.1 ± 0.1 µM; in data set [3], 1.9 ± 0.4 µM; in data set [4], 39.1 ± 2.5 µM. Besides, the IC50 is 4.9 ± 0.4 µM in [10], 5.5 ± 1 µM in [6], greater than 10 µM in [11] and 2.7 ± 0.9 µM in [12]. The “Selective index (a)/(b)” value in data set [2] came to 17.0.
